In PMC10057066, “Unraveling the Aquaporin-3 Inhibitory Effect of Rottlerin by Experimental and Computational Approaches” (International Journal of Molecular Sciences, 2023) one finds IC50 data, which are given here for 1 compound.

The target of the assay is T1, aquaporin-3 (AQP3) (Homo sapiens, UniProt Q92482).
T1 construct: human AQP3 C-terminally GFP-tagged, expressed in aqy-null S. cerevisiae; endogenous AQP3 in human red blood cells
T1 sequence (Q92482 1-292): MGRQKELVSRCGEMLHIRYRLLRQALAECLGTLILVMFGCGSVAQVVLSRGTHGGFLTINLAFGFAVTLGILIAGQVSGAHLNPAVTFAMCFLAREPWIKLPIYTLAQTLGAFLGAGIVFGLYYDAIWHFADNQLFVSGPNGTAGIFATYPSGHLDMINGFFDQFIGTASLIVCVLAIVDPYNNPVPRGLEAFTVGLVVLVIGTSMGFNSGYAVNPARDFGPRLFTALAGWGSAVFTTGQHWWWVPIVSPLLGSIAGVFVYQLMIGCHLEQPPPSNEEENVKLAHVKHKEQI
In words: stopped-flow glycerol permeability in hRBCs (IC50), confirmed in hAQP3-expressing yeast ([…] inhibition at […]). Format: cell-based.

As to `CC(=O)c1c(O)c(C)c(O)c(Cc2c(O)c3c(c(C(=O)/C=C/c4ccccc4)c2O)OC(C)(C)C=C3)c1O` [RoT, Rottlerin], the IC50 turned out to be 6.7 ± 2.97 µM.

Usually IC50 stands for the concentration at which inhibition is half-maximal.
